Among the data in patent US11744903B2, “Method for preparing cyclodextrin metal organic framework (CD-MOF) stable in aqueous phase” (Qilu University of Technology, priority 2022, dated 2023) are Encapsulation rate values, retold here.

SMILES strings stand for the structures.

The series can be described thus: Encapsulation rate of β-CD-MOF for active substances. In kind it is physicochemical. The following applies: carrier β-CD-MOF; loaded by impregnation, Examples 1-5.
`O=C/C=C/c1ccccc1` [Cinnamic aldehyde, cinnamic aldehyde] registered an Encapsulation rate of 79.68 ± 0.28%.

`COc1cc2c(=O)c(-c3ccc(O)cc3)coc2cc1O` [Glycitein, glycitein] had an Encapsulation rate of 76.34 ± 0.23%.

In turn, `O=C1C[C@@H](c2ccc(O)cc2)Oc2cc(O)cc(O)c21` [Naringenin, naringenin] showed an Encapsulation rate of 70.23 ± 0.15%.

`Oc1ccc(C=Cc2cc(O)cc(O)c2)cc1` [Resveratrol, resveratrol] showed an Encapsulation rate of 82.19 ± 0.35%.

On to `Cc1coc2c1C(=O)C(=O)c1c-2ccc2c1CCCC2(C)C` [Tanshinone IIA, tanshinone IIA], for which the Encapsulation rate came to 76.40 ± 0.67%.
